What was measured:
Experiment in all cases: relative viability (nuclei count vs DMSO), 5 days (fraction); higher = more cells survive
Gemcitabine + Vorinostat = compound: Nc1ccn([C@@H]2O[C@H](CO)[C@@H](O)C2(F)F)c(=O)n1 [Gemcitabine] + O=C(CCCCCCC(=O)Nc1ccccc1)NO [Vorinostat] (partner 1 µM)
Procedure, shortened: (§1)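 Medians of duplicate plates are given as relative viability. That measure is the nuclei count in treated wells divided by the count in vehicle wells. Counts were taken on 4× images of lung cancer cell lines in 1536-well plates, 5 days after pin-tool dosing the day after seeding with one drug alone or a fixed anchor-drug dose plus five library-drug doses (not always all listed) in √10 steps.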

Gemcitabine + AZD7762 = compound: Nc1ccn([C@@H]2O[C@H](CO)[C@@H](O)C2(F)F)c(=O)n1 [Gemcitabine] + NC(=O)Nc1cc(-c2cccc(F)c2)sc1C(=O)N[C@H]1CCCNC1 [AZD7762] (partner 0.2 µM)
Procedure, shortened: as §1

[1] = compound: Nc1ccn([C@@H]2O[C@H](CO)[C@@H](O)C2(F)F)c(=O)n1 [Gemcitabine] + CC(=O)c1c(C)c2cnc(Nc3ccc(N4CCNCC4)cn3)nc2n(C2CCCC2)c1=O [Palbociclib] (partner 0.5 µM)
Procedure, shortened: as §1

Gemcitabine + Crizotinib = compound: Nc1ccn([C@@H]2O[C@H](CO)[C@@H](O)C2(F)F)c(=O)n1 [Gemcitabine] + C[C@@H](Oc1cc(-c2cnn(C3CCNCC3)c2)cnc1N)c1c(Cl)ccc(F)c1Cl [Crizotinib] (partner 1 µM)
Procedure, shortened: as §1

Row | Cell Line | relative viability (Gemcitabine + Vorinostat; first compound 0.001 µM) | relative viability (Gemcitabine + Vorinostat; first compound 0.003162 µM) | relative viability (Gemcitabine + Vorinostat; first compound 0.01 µM) | relative viability (Gemcitabine + Vorinostat; first compound 0.03162 µM) | relative viability (Gemcitabine + Vorinostat; first compound 0.1 µM) | relative viability (Gemcitabine + AZD7762; first compound 0.001 µM) | relative viability (Gemcitabine + AZD7762; first compound 0.003162 µM) | relative viability (Gemcitabine + AZD7762; first compound 0.01 µM) | relative viability (Gemcitabine + AZD7762; first compound 0.03162 µM) | relative viability (Gemcitabine + AZD7762; first compound 0.1 µM) | relative viability ([1]; first compound 0.001 µM) | relative viability ([1]; first compound 0.003162 µM) | relative viability ([1]; first compound 0.01 µM) | relative viability ([1]; first compound 0.03162 µM) | relative viability ([1]; first compound 0.1 µM) | relative viability (Gemcitabine + Crizotinib; first compound 0.001 µM) | relative viability (Gemcitabine + Crizotinib; first compound 0.003162 µM) | relative viability (Gemcitabine + Crizotinib; first compound 0.01 µM) | relative viability (Gemcitabine + Crizotinib; first compound 0.03162 µM) | relative viability (Gemcitabine + Crizotinib; first compound 0.1 µM)
1 | HOP-62 | 0.661 | 0.353 | 0.0836 | 0.0926 | 0.0697 | 0.287 | 0.08 | 0.0514 | 0.0757 | 0.0617 | 0.358 | 0.339 | 0.184 | 0.0959 | 0.0958 | 0.906 | 0.677 | 0.0595 | 0.051 | 0.0502
2 | LC-2-ad | 0.7 | 0.804 | 0.665 | 0.522 | 0.199 | 0.86 | 0.852 | 0.25 | 0.185 | 0.18 | 0.509 | 0.555 | 0.424 | 0.496 | 0.317 | 0.471 |  | 0.427 | 0.162 | 0.109
3 | LCLC-97TM1 | 0.51 | 0.314 | 0.149 | 0.0661 | 0.0642 | 0.105 | 0.0523 | 0.0434 | 0.0523 | 0.0703 | 0.17 | 0.135 | 0.134 | 0.0816 | 0.0933 | 0.297 | 0.179 | 0.0935 | 0.0797 | 0.12
4 | LCLC-103H | 0.761 | 0.856 | 0.754 | 0.585 | 0.46 | 0.788 | 0.761 | 0.66 | 0.24 | 0.215 | 0.491 | 0.504 | 0.497 | 0.42 | 0.406 | 1.12 | 1.07 | 0.934 | 0.997 | 0.272
5 | LK-2 | 0.265 | 0.268 | 0.155 | 0.164 | 0.146 | 0.455 | 0.251 | 0.0955 | 0.105 | 0.0964 | 0.798 | 0.696 | 0.403 | 0.119 | 0.126 | 0.285 |  | 0.255 | 0.238 | 0.225
6 | LOU-NH91 | 0.943 | 0.761 | 0.421 | 0.22 | 0.268 | 0.762 | 0.603 | 0.395 | 0.288 | 0.292 | 0.524 | 0.522 | 0.478 | 0.474 | 0.412 | 0.715 | 0.594 | 0.451 | 0.286 | 0.271
7 | LU99A | 0.509 | 0.577 | 0.502 | 0.523 | 0.531 | 0.437 | 0.41 | 0.332 | 0.367 | 0.299 | 0.412 | 0.43 | 0.409 | 0.404 | 0.421 | 0.577 | 0.648 | 0.567 | 0.567 | 0.562
8 | LXF-289 | 0.754 | 0.731 | 0.292 | 0.107 | 0.0902 | 1.1 | 0.767 | 0.0873 | 0.0797 | 0.088 | 0.606 | 0.604 | 0.428 | 0.127 | 0.14 | 0.786 | 0.783 | 0.562 | 0.127 | 0.112
9 | NCI-H23 | 0.504 | 0.122 | 0.11 | 0.106 | 0.109 | 0.154 | 0.134 | 0.0996 | 0.112 | 0.118 | 0.383 | 0.245 | 0.158 | 0.156 | 0.139 | 0.297 | 0.206 | 0.12 | 0.131 | 0.152
10 | NCI-H322M | 0.864 | 0.408 | 0.337 | 0.384 | 0.44 | 0.458 | 0.382 | 0.356 | 0.423 | 0.419 | 0.463 | 0.396 | 0.336 | 0.452 | 0.425 | 0.85 | 0.357 | 0.269 | 0.219 | 0.212
11 | NCI-H358 | 0.988 | 0.186 | 0.0888 | 0.113 | 0.0707 | 0.201 | 0.245 | 0.16 | 0.23 | 0.126 | 0.124 | 0.0834 | 0.0975 | 0.0732 | 0.08 | 0.494 | 0.228 | 0.188 | 0.166 | 0.135
12 | NCI-H441 | 0.717 | 0.265 | 0.182 | 0.157 | 0.123 | 0.603 | 0.134 | 0.11 | 0.165 | 0.128 | 0.242 | 0.163 | 0.178 | 0.13 | 0.123 | 0.82 | 0.286 | 0.167 | 0.121 | 0.129
13 | NCI-H460 | 0.855 | 0.736 | 0.458 | 0.0301 | 0.0175 | 0.831 | 0.48 | 0.0469 | 0.026 | 0.0247 | 0.129 | 0.212 | 0.0945 | 0.0273 | 0.0115 | 1.12 | 0.894 | 0.528 | 0.0182 | 0.0089

Reference: the supplement of paper PMC10307832
